≈ marks a conversion by molar mass, not a printed value.
Legend:
[1] = Inhibition of Plasmodium falciparum W2 recombinant falcipain-2
Plasmodium falciparum = test: Antiplasmodial activity against Plasmodium falciparum W2; assay type: functional, organism-based
[2] = tested on: Mycobacterium tuberculosis; test: Antitubercular activity against Mycobacterium tuberculosis H37Rv by microplate alamar blue assay; assay type: functional
[3] = tested on: Mycobacterium tuberculosis; test: Antitubercular activity against Mycobacterium tuberculosis H37Rv at 10 ug/ml by BACTEC radiometric susceptibility assay; assay type: functional
[4] = tested on: Mycobacterium tuberculosis; test: Antitubercular activity against Mycobacterium tuberculosis H37Rv at 1 ug/ml by BACTEC radiometric susceptibility assay; assay type: functional
[5] = tested on: Mycobacterium tuberculosis; test: Antitubercular activity against Mycobacterium tuberculosis H37Rv by LORA assay; assay type: functional

## CC1=C(OCCN2C(=O)C(=O)c3cc(Br)ccc32)C(C)SC1=O (configuration not stated)
[1]
  IC50: 31.7 µM
Plasmodium falciparum
  IC50: 17.4 µM

## CC1=C(OCCN2C(=O)C(=O)c3cc(I)ccc32)C(C)SC1=O (configuration not stated)
[1]
  IC50: 17.8 µM
[2]
  MIC: > 128 µM
[3]
  inhibition at 10 µg/mL: 42%
[4]
  inhibition at 1 µg/mL: -3.2%
Plasmodium falciparum
  IC50: > 20 µM

## O=C1C(=O)N(CCCCBr)c2ccc(Br)cc21
[1]
  IC50: > 100 µM
[2]
  MIC: 30.5 µM (≈ 11 µg/mL)
Plasmodium falciparum
  IC50: > 20 µM
[5]
  MIC: 37.7 µM (≈ 13.6 µg/mL)

## CC1=C(OCCN2C(=O)C(=O)c3cc(C)ccc32)C(C)SC1=O (configuration not stated)
[1]
  IC50: > 100 µM
[2]
  MIC: > 128 µM
[3]
  inhibition at 10 µg/mL: 4%
[4]
  inhibition at 1 µg/mL: -12%
Plasmodium falciparum
  IC50: > 20 µM

## CC1=C(OCCCCCN2C(=O)C(=O)c3ccccc32)C(C)SC1=O (configuration not stated)
[1]
  IC50: 58 µM
[2]
  MIC: > 128 µM
[3]
  inhibition at 10 µg/mL: 34%
[4]
  inhibition at 1 µg/mL: 34.9%
Plasmodium falciparum
  IC50: 15.3 µM

## O=C1C(=O)N(CCCCCCBr)c2ccc(Cl)cc21
[2]
  MIC: 29.7 µM (≈ 10.2 µg/mL)
[5]
  MIC: 31 µM (≈ 10.7 µg/mL)

## CC(C)C[C@H](NC(=O)[C@H]1O[C@@H]1C(=O)O)C(=O)NCCCCN=C(N)N [E-64]
[1]
  IC50: 0.0473 µM

## O=[N+]([O-])c1cn2c(n1)OC[C@@H](OCc1ccc(OC(F)(F)F)cc1)C2 [PRETOMANID]
[2]
  MIC: 0.16 µM (≈ 0.0575 µg/mL)
[5]
  MIC: 3.3 µM (≈ 1.19 µg/mL)

## O=C1C(=O)N(CCCCBr)c2ccc(Cl)cc21
[1]
  IC50: > 100 µM
[2]
  MIC: 30.5 µM (≈ 9.66 µg/mL)
Plasmodium falciparum
  IC50: > 20 µM
[5]
  MIC: 30.5 µM (≈ 9.66 µg/mL)

## O=C1C(=O)N(CCCCBr)c2ccc([N+](=O)[O-])cc21
[1]
  IC50: > 100 µM
[2]
  MIC: > 128 µM
Plasmodium falciparum
  IC50: > 20 µM

## CN[C@@H]1[C@H](O[C@H]2[C@H](O[C@H]3[C@H](O)[C@@H](O)[C@H](N=C(N)N)[C@@H](O)[C@@H]3N=C(N)N)O[C@@H](C)[C@]2(O)C=O)O[C@@H](CO)[C@H](O)[C@H]1O [STREPTOMYCIN]
[2]
  MIC: 0.43 µM (≈ 0.25 µg/mL)

## CC1=C(OCCCCN2C(=O)C(=O)c3ccccc32)C(C)SC1=O (configuration not stated)
[1]
  IC50: > 100 µM
[2]
  MIC: > 128 µM
[3]
  inhibition at 10 µg/mL: 42.6%
[4]
  inhibition at 1 µg/mL: 33.4%
Plasmodium falciparum
  IC50: > 20 µM

## CC1=C2OCCCCN3C(=O)C(O)(c4cc(I)ccc43)C2(C)SC1=O (configuration not stated)
[1]
  IC50: > 100 µM
[2]
  MIC: > 128 µM
[3]
  inhibition at 10 µg/mL: 19.6%
[4]
  inhibition at 1 µg/mL: 4.9%
Plasmodium falciparum
  IC50: > 20 µM

## CC1=C(O)SC(C)C1=O (configuration not stated) [THIOLACTONE]
[1]
  IC50: > 100 µM
[2]
  MIC: > 128 µM
[3]
  inhibition at 10 µg/mL: -32.8%
[4]
  inhibition at 1 µg/mL: -24.5%
Plasmodium falciparum
  IC50: > 20 µM

## CO[C@H]1/C=C/O[C@@]2(C)Oc3c(C)c(O)c4c(O)c(c(/C=N/N5CCN(C)CC5)c(O)c4c3C2=O)NC(=O)/C(C)=C\C=C\[C@H](C)[C@H](O)[C@@H](C)[C@@H](O)[C@@H](C)[C@H](OC(C)=O)[C@@H]1C [RIFAMPIN]
[2]
  MIC: 0.05 µM (≈ 0.0411 µg/mL)
[5]
  MIC: 2.4 µM (≈ 1.98 µg/mL)

## CC1=C(OCCN2C(=O)C(=O)c3cc(F)ccc32)C(C)SC1=O (configuration not stated)
[1]
  IC50: 89.6 µM
[2]
  MIC: > 128 µM
[3]
  inhibition at 10 µg/mL: 22%
[4]
  inhibition at 1 µg/mL: -29%
Plasmodium falciparum
  IC50: > 20 µM

## O=C1C(=O)N(CCCBr)c2ccccc21
[1]
  IC50: > 100 µM
[2]
  MIC: > 128 µM
Plasmodium falciparum
  IC50: > 20 µM

## CC1=C2OCCCCCCN3C(=O)C(O)(c4cc(Cl)ccc43)C2(C)SC1=O (configuration not stated)
[1]
  IC50: > 100 µM
[2]
  MIC: > 128 µM
[3]
  inhibition at 10 µg/mL: -20%
[4]
  inhibition at 1 µg/mL: -16%
Plasmodium falciparum
  IC50: 7.41 µM

## CC1=C2OCCCCN3C(=O)C(O)(c4cc([N+](=O)[O-])ccc43)C2(C)SC1=O (configuration not stated)
[1]
  IC50: 44.5 µM
[2]
  MIC: > 128 µM
[3]
  inhibition at 10 µg/mL: -5.1%
[4]
  inhibition at 1 µg/mL: -3%
Plasmodium falciparum
  IC50: > 20 µM

## CC1=C(OCCCN2C(=O)C(=O)c3ccccc32)C(C)SC1=O (configuration not stated)
[1]
  IC50: > 100 µM
[2]
  MIC: > 128 µM
[3]
  inhibition at 10 µg/mL: 14.9%
[4]
  inhibition at 1 µg/mL: -18.5%
Plasmodium falciparum
  IC50: > 20 µM

## O=C1C(=O)N(CCCCCCBr)c2ccccc21
[1]
  IC50: > 100 µM
[2]
  MIC: 97.6 µM (≈ 30.3 µg/mL)
Plasmodium falciparum
  IC50: > 20 µM
[5]
  MIC: 108 µM (≈ 33.5 µg/mL)

## CC1=C2OCCCCN3C(=O)C(O)(c4cc(C)ccc43)C2(C)SC1=O (configuration not stated)
[1]
  IC50: > 100 µM
[2]
  MIC: > 128 µM
[3]
  inhibition at 10 µg/mL: -0.4%
[4]
  inhibition at 1 µg/mL: -0.6%
Plasmodium falciparum
  IC50: > 20 µM

## CC1=C2OCCCCCCN3C(=O)C(O)(c4cc(F)ccc43)C2(C)SC1=O (configuration not stated)
[1]
  IC50: > 100 µM
[2]
  MIC: > 128 µM
[3]
  inhibition at 10 µg/mL: -28%
[4]
  inhibition at 1 µg/mL: -35%
Plasmodium falciparum
  IC50: 14 µM

## O=C1C(=O)N(CCCCBr)c2ccc(F)cc21
[1]
  IC50: > 100 µM
[2]
  MIC: 123 µM (≈ 36.9 µg/mL)
Plasmodium falciparum
  IC50: > 20 µM
[5]
  MIC: 53.3 µM (≈ 16 µg/mL)
